Earlier results on 2 substances are cited in patent publication US20130133101A1, “PLANTS RESISTANT TO PATHOGENS AND METHODS FOR PRODUCTION THEREOF” (GENOPLANTE-VALOR, priority 2010, published 2013).

The subject of one data set is Phoma nareissi. The note with it: in vitro, dose-dependent manner.
Another data set has as its system Botrytis tulipae. The note with it: in vitro, dose-dependent manner.

Non-standard residues stand in square brackets, D forms with d. sY = N[C@@H](Cc1ccc(OS(=O)(=O)O)cc1)C(=O)O

As to H-[sY]I[sY]TQ-OH [PSKα], the mycelium growth inhibition entry in the data set with Phoma nareissi and in the data set on Botrytis tulipae was “inhibit in vitro the mycelium growth” in each case.
Regarding H-[sY]I[sY]T-OH [PSKβ], the mycelium growth inhibition entry in the data set with Phoma nareissi and in the data set on Botrytis tulipae was “inhibit in vitro the mycelium growth” throughout.
